Experimental data reported in patent US20210290576A1, “STRUCTURALLY MODIFIED FATTY ACIDS FOR IMPROVING GLYCEMIC CONTROL AND TREATING INFLAMMATORY BOWEL DISEASE” (NORTHSEA THERAPEUTICS B.V., priority 2018, published 2021).

Key:
plasma insulin = assay: Plasma insulin at 24 h after OGTT in lean male SPD rats; assay type: in vivo, Sprague-Dawley (SPD) rats; conditions: non-significant
Procedure: Evaluation of the Acute Effects of Compound a and Compound B Upon Active GLP-1 wconcentrations during an oral glucose tolerance test (OGTT) and at 24 h in lean male SPD Rats
To establish the acute effects of oral administration of Compound A and Compound B upon active GLP-1 and insulin concentrations, lean (about 300 g) male Sprague-Dawley (SPD) rats were divided into groups (n=6-8) and fed 74 and 84 mg/kg body weight of Compound A or Compound B respectively, either with or without concurrent administration of a dipeptidyl peptidase 4 (DPP-4) inhibitor 60 minutes prior to an oral glucose tolerance test (OGTT) as outlined below. Parallel groups receiving either corn oil alone (corn oil+vehicle, n=10) or corn oil and a DPP-4 inhibitor (“DPP-4 i”) (corn oil+(DPP-4 i), n=10) were included as controls. The DPP-4 inhibitor was linagliptin.
A second oral dose of 74 and 84 mg/kg bodyweight of Compound A or Compound B respectively was administered at 240 minutes and ad lib feeding was initiated. A second dose of DPP-4 inhibitor was administered at 480 mins prior to lights out. Blood samples were collected at 24 h for measurement of active GLP-1 and insulin. All values are mean, figures depict mean values (SEM).

[1] = Intestinal tissue distribution of radioactivity by quantitative whole-body autoradiography (QWBA); assay type: in vivo, male albino rats; conditions: single oral 50 mg/kg [14C]-Compound B
Procedure: Biological Example 7. Concentrations of Radioactivity in Intestinal Segments of Male Albino Rats after a Single Oral Administration of [14C]-Compound B at a Nominal Dose Level of 50 mg/kg Body Weight
This study was conducted to determine the intestinal tissue distribution of radioactivity in male albino rats following a single oral administration of [14C]-Compound B using quantitative whole-body autoradiography (QWBA). The tissue distribution in rats following a single oral dose of [14C]-Compound B at 50 mg/kg (Ca 5 MBq/kg) was studied by QWBA analysis up to 168 hours after dosing.

[2] = Excretion balance: recovery of radioactivity in excreta; assay type: in vivo, male albino rats; conditions: single oral 50 mg/kg [14C]-Compound B
Procedure: Biological Example 8. Recovery of Radioactivity in the Excreta of Male Albino Rats after a Single Oral Administration of [14C]-Compound B at a Nominal Dose Level of 50 mg/kg Body Weight
To assess Compound B clearance via urine versus feces, the excretion pattern of a single oral dose of [14C]-Compound B was determined in male albino rats. […] The total excretion of radioactivity following oral administration was >95% within the first 48 hours. Excretion via the urine accounted for 12% of the administered dose. […]

DSS-induced colitis mice = assay: DSS-induced colitis mouse model (body weight, colon length, survival, histology); assay type: in vivo, C56BL/6J mouse; conditions: for colon length compared to control: 7 days DSS
Description: Evaluation of Effects of Compound B on Intestinal Inflammation in DSS-Induced Colitis Mice
The dextran sodium sulphate-induced (DSS)-induced colitis model is well known in the art as a reproducible chemical induction of intestinal inflammation animal model. See, e.g., Eichele et al., World J Gastroenterol, 2017, 23(33):6016-6029; Randhawa et al., Korean J. Physiol. Pharmacol. (2014) 18:279-288; Jurjus et al., J. Pharmacol. Toxicol., Methods, 2004, 50:81-92; Gaudio et al., Dig. Dis. Sci., 1999, 44:1458-1475. The DSS-induced colitis model morphologically and symptomatically resembles epithelial damage seen in human IBD, and thus has become the most extensively employed experimental model of intestinal inflammation. Okayasu et al., Gastroenterology, 1990, 98:694-702; Kawada et al., World J. Gastroenterol. 2007, 13:5581-5593. The DSS-induced colitis model is most similar to ulcerative colitis in humans, but also has many similarities to Crohn's disease.
DSS is a water soluble, negatively charged sulfated polysaccharide with a highly variable molecular weight ranging from 5 to 1400 kDa. Murine colitis results from administration of about 1% to 3% DSS to the drinking water of a mouse strain susceptible to DSS-induced colitis. Without being bound by theory, the sulfated polysaccharide may not directly induce intestinal inflammation, but may instead act as a direct chemical toxin to colonic epithelium resulting in epithelial cell injury. It is thought that DSS disrupts the intestinal epithelial monolayer lining, leading to the entry of luminal bacteria and associated antigens into the mucosa and allowing the dissemination of proinflammatory intestinal contents into underlying tissue. […] Perse et al., J. Biomed. Biotechnol., 2012:718617.
The C56BL/6J mouse is a strain susceptible to DSS-induced colitis. To evaluate the efficacy and dosage of Compound B in treatment of DSS-induced colitis, inflammation was induced in 30 9-week old C56BL/6J mice by adding 1.5% DSS to the drinking water for 7 days. The mice were fed a standard chow diet that consisted of 30 weight percent wheat. The mice were divided into three groups of 10, and for each day of DSS administration each group was administered via oral gavage either (1) 100 μL corn oil per day (Control), (2) 126 mg/kg Compound B (dissolved in 100 μL corn oil) per day (“Compound B—Low” or “Compound B—L”), or (3) 252 mg/kg Compound B (dissolved in 100 μL corn oil) per day (“Compound B—High” or “Compound B—H”). Following the 7-day period of DSS induction, mice were sacrificed and their intestinal tissue was used for histopathological and gene expression analysis.
To assess the efficacy of Compound B in the treatment of DSS-induced colitis in mice, the body weight of mice was monitored. Weight loss is an indicator of colitis severity.
To assess the efficacy of Compound B in the treatment of DSS-induced colitis in mice, colon length of test mice was measured. Colon length correlates inversely with inflammation.
50% (n=5) of untreated mice in the control group were alive 7 days after colitis was induced, compared to 90% (n=9) of mice treated with the low dose of Compound B, and 100% (n=10) of mice treated with the high dose of compound B. Deaths in the control group were due to sepsis and severe colon inflammation. Thus, Compound B has a statistically significant effect on survival rate in colitis mice.
Histopathological analysis was performed on sections of formalin-fixed paraffin embedded tissue after hematoxylin and eosin (H&E) staining. Colonic samples were analyzed by histopathology for assignment of scores for colitis activity as described in Neurath et al., J. Exp. Med., 2002, 195:1129-1143. Briefly, the degrees of inflammation and epithelial and mucosal injury on microscopic cross-sections of the colon were graded semi-quantitatively from 0 to 4. […]

## CC/C=C\C/C=C\C/C=C\C/C=C\C/C=C\CCCCSC(CC)(CC)C(=O)O [Compound B, 2-ethyl-2-((5Z,8Z,11 Z,14Z,17Z)-icosa-5,8,11,14,17-pentaenylthio)butanoic acid]
Plasma insulin; compound alone
  increase of plasma insulin concentrations at 24 h versus corn oil+vehicle and corn oil+DPP4 inhibitor: 25%
Plasma insulin; in combination with DPP4 inhibitor (linagliptin)
  increase of plasma insulin concentrations at 24 h versus corn oil+vehicle and corn oil+DPP4 inhibitor: 40%
[1]
  accumulation in the caecum (time span): from 4 hours onwards to 1 day
  accumulation in the large intestine (time): 8 h
  time of peak concentrations in the small intestinal mucosa: 4 h
[2]; 0-168 h, n = 3
  % Recovery of Administered Dose, Mean total radioactivity: 101%
[2]
  total excretion of radioactivity within the first 48 hours: > 95%
DSS-induced colitis mice; 126 mg/kg per day (Compound B—Low)
  difference in weight loss, control vs. treated: statistically significant after 7 days
DSS-induced colitis mice; 126 mg/kg per day (low dose)
  colon length compared to control: significant increase in colon length
DSS-induced colitis mice; 252 mg/kg per day (Compound B—High)
  difference in weight loss, control vs. treated: statistically significant after 6 days
DSS-induced colitis mice; 252 mg/kg per day (high dose)
  histological cross-sections of colon: morphology: almost complete rescue
  histological scores of colonic samples versus untreated mice: significantly lower
  inflammation and epithelial and mucosal injury versus untreated mice: lower
  colon length compared to control: significant increase in colon length
DSS-induced colitis mice; 126 and 252 mg/kg per day
  histological cross-sections of colon: inflammatory infiltrates, edema, villus architecture: dose-dependent attenuation of inflammatory infiltrates and edema
DSS-induced colitis mice; 126 and 252 mg/kg per day oral gavage, 1.5% DSS for 7 days
  weight loss compared to the control group: dose-dependent reduction in weight loss
